Assay results published in patent US20080280890A1, “HYDROXYLAMINE COMPOUNDS AND METHODS OF THEIR USE” (priority 2007, published 2008).
Several values for one entry are separate records, joined by “and”; a condition that tells them apart may be missing. Identical values can stand only once. Like-named read-outs stand apart in the source and are kept apart here.

How the values were obtained:
[1] = tested on: Angiogenesis in CAM model; assay: Neovascularization on the CAM (chick chorioallantoic membrane model of angiogenesis); assay type: in vivo, chicken; conditions: for CAM data % Inhibition / Percent inhibition of angiogenesis in CAM model at 30 ug: 30 ug; for Percent inhibition of angiogenesis in CAM model at 30 ug: unit assumed
How it was run: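 Chick CAM of 10-day embryos given filter disks pretreated with cortisone acetate and saturated with bFGF (1 μg/ml) or other pro-angiogenic factors. After 24-48 hr, 10-25 ul test agent was injected intravenously or applied topically. After 3 days at 37° C, vessel branch points under each disk were counted at 50× (8 CAMs/group) and converted to % inhibition relative to positive and negative controls.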

[2] = tested on: TNF-alpha; assay: LPS induced TNF-alpha inhibition (whole blood / THP-1 cells, ELISA); assay type: cell-based, human
Experimental: Following incubation with LPS, PBS was added (800 uL) and samples were spun for 10 minutes at 1500 g. […] TNFα protein concentrations were measured using R&D Systems high sensitivity ELISA kit.
The lipid peroxidation assay method of Ohkawa, H.; Ohishi, N.; Yaki, K. Anal. Biochem. 1979, 95, 351 was used to evaluate TNF α. […] Cells were induced with 25 ng/mL LPS for another 3 hrs. Cells were collected and spun at 1500 g for 10 minutes. Supernatant was collected and analyzed for TNFα.
OT-551 was used in both native form and in the form of nanoparticles. […] Other nitrogenous heterocyclic species of the invention are expected to show similar improvement in efficacy when disposed in nanoparticulate form.

[3] = tested on: lipid peroxidation; assay: Lipid peroxidation inhibition (method of Ohkawa); assay type: biochemical; conditions: for Lipid Peroxidation % Inhibition: 10 uM
[4] = tested on: Human neuroblastoma SKN-SH cells, resistant to doxorubicin; assay: Chemoresistance: cancer cell viability (MTT) in presence or absence of doxorubicin; assay type: cell-based; conditions: for Mean OD (×10^−3), cancer cell viability: compound 50 ug/mL, MTT
How it was run: (§1)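 Doxorubicin-resistant SKN-SH neuroblastoma cells, selected by stepwise exposure to 10^−9–10^−6 M doxorubicin over 3 months, in DMEM/10% FBS at 37 °C. Treated with doxorubicin alone or with hydroxylamine for 72 h (96 h in one variant). MTT read at 570 nm, survival relative to untreated cells.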

[5] = tested on: Human neuroblastoma SKN-SH cells; assay: as above; assay type: cell-based; conditions: compound alone; P<0.001
How it was run: as §1

[6] = tested on: bFGF (FGF2) stimulated angiogenesis in CAM model; assay: Angiogenesis in the CAM model using bFGF stimulus; assay type: in vivo, chicken; conditions: FGF2 (1 ug) + 30 ug injected
Experimental: The number of vessel branch points contained in a circular region equal to the area of a filter disk was counted for each section. Percent inhibition data are expressed as the quotient of the experimental value minus the negative control value divided by the difference between the positive control value and the negative control value. One image was counted in each CAM preparation, and findings from eight CAM preparations were analyzed for each treatment condition. In addition, each experiment was performed three times. The resulting angiogenesis index is the mean ± SEM (Standard Error of Measurement) of new branch points in each set of treatment. Statistical analysis of blood vessel branching patterns are performed by 1-way analysis of variance (ANOVA) comparing experimental with corresponding control groups. Statistical significance differences are assessed at P value of <0.05.
Assessment of Angiogenesis in the CAM Model Using bFGF Stimulus.
The CAM model protocol was modified to include stimulus with bFGF. The effect of injected OT 551 was assayed.

[7] = Ocular permeability and retinal levels after topical administration; assay type: in vivo

Compound	Percent inhibition of angiogenesis in CAM model at 30 ug [1] [%]	% Lipid Peroxidation inhibition (at 1 uM) [3] [%]	Lipid Peroxidation % Inhibition [3] [%]	Mean OD (×10^−3), cancer cell viability ([4]; Dox. 10^−6 M present (+))	Mean OD (×10^−3), cancer cell viability ([4]; Dox. absent (−))	further results
1-hydroxyl-4-(4-(2,2,6,6-tetramethylpiperidin-1-hydroxyl-4-yloxy)-1,2,5-thiadiazol-3-yloxy)-2,2,6,6-tetramethylpiperidine [Compound 14]	75.1	88.6	95.2	–	–	CAM data % Inhibition [1]: 95.2%; Mean Percent Inhibition of TNF-alpha using 5 ng/mL LPS ([2]; compound 10 uM, 5 ng/mL LPS): 63 ± 1%; IC50 ([2]; read-out: TNFalpha IC50): 11.4 µM
CC(=O)NC1CC(C)(C)N(O)C(C)(C)C1.Cl [Compound 2, 1-hydroxy-4-acetamido-2,2,6,6-tetramethylpiperidine]	76	–	81.0	249.25 ×10^−3	496.33 ×10^−3	melting point: 180.5 °C (dec.)
CC1(C)CC(Oc2nsnc2N2CCOCC2)CC(C)(C)N1O.Cl [Compound 4, 4-(4-(2,2,6,6-tetramethylpiperidin-1-hydroxyl-4-yloxy)-1,2,5-thiazol-3-yl)morpholine]	92.8	87.0	91.4	88.00 ×10^−3	468.50 ×10^−3	reversal of drug resistance ([4]; combined with doxorubicin, osteosarcoma, breast cancer, and neuroblastoma): strong ability to reverse drug resistance; killing of doxorubicin-resistant cells ([4]; compound alone, P<0.001): enhanced the killing; killing of doxorubicin-sensitive cells [5]: enhanced the killing
CC1(C)CC(=O)CC(C)(C)N1O [Compound 5, 1-Hydroxy-2,2,6,6-tetramethyl-piperidin-4-one]	–	71.0	86.3	245.50 ×10^−3	556.50 ×10^−3	inhibition at 10 µM ([2]; Homo sapiens, THP-1, read-out: Mean Percent Inhibition of TNF-alpha using 5 ng/mL LPS): 66 ± 7%; IC50 ([2]; Homo sapiens, THP-1, read-out: TNFalpha IC50 (uM)): 22.2 µM
CC1C(O)C(C)C(C)(C)N(O)C1(C)C.Cl (stereo not shown) [Compound 6, 2,2,3,5,6,6-Hexamethyl-piperidine-1,4-diol]	40.4	70.5	89.0	185.25 ×10^−3	367.00 ×10^−3	melting point: 191.5 °C (dec.)
CC1(C)CC(NC(=O)N2CCOCC2)CC(C)(C)N1O.Cl [Compound 11, N-(2,2,6,6-tetramethylpiperidin-1-hydroxyl-4-yl)morpholine-4-carboxamide]	71	–	82.7	267.25 ×10^−3	470.25 ×10^−3	melting point: 158.1 °C (dec.)
CC1(C)c2ccc(C(=O)O)cc2C(C)(C)N1O.Cl [Compound 15, 1,1,3,3-tetramethylisoindolin-2-hydroxyl-5-carboxylic acid]	71.8	88.0	94.6	–	–	melting point: 225.5 °C (dec.)
CC1(C)COCC(C)(C)N1O.Cl [Compound 20, 3,3,5,5-1-hydroxy-tetramethylmorpholine]	78.6	–	90.2	107.5 ×10^−3	515.50 ×10^−3	melting point: 184.6 °C (dec.)
CC1(C)C=C(C(N)=O)C(C)(C)N1O [Compound 23, 2,5-dihydro-2,2,5,5-tetramethyl-1H-pyrrole-3-carboxamide-1-hydroxy]	48.8	–	–	416.25 ×10^−3	1432.50 ×10^−3	IC50 ([2]; read-out: TNFalpha IC50): 87.4 µM
CC1(C)CC(C(N)=O)C(C)(C)N1O (stereo not shown) [Compound 24, 1-hydroxy-2,2,5,5-tetramethylpyrrolidine-3-carboxamide]	65.8	37.0	–	362.00 ×10^−3	1166.50 ×10^−3	–
CC1(C)C=C(CO)CC(C)(C)N1O.Cl [Compound 25]	62.9	42.0	–	325.00 ×10^−3	1137.50 ×10^−3	–
Cc1cc(O)c(O)cc1C(=O)NC1CC(C)(C)N(O)C(C)(C)C1.Cl [Compound 27, 4,5-dihydroxy-2-methyl-N-(1-hydroxy-2,2,6,6-tetramethylpiperidin-4-yl)benzamide]	88.3	53.4	–	403.75 ×10^−3	1038.33 ×10^−3	–
CC(C)(C)c1cc(NC(=O)C2CC(C)(C)N(O)C(C)(C)C2)cc(C(C)(C)C)c1O.Cl [Compound 29, N-(3,5-di-tert-butyl-4-hydroxyphenyl)-1-hydroxy-2,2,6,6-tetramethylpiperidine-4-carboxamide]	100	92.3	–	105.75 ×10^−3	1328.00 ×10^−3	–
CC1(C)CC(CO)C(C)(C)N1O.Cl (stereo not shown) [Compound 33]	77.8	54.9	–	300.00 ×10^−3	1237.50 ×10^−3	–
CC1(C)CC(Oc2nsnc2C#N)CC(C)(C)N1O [Compound 45]	50	91.5	–	276.50 ×10^−3	1063.33 ×10^−3	–
Cc1nsnc1OCC1=CC(C)(C)N(O)C1(C)C [Compound 47, 3-((1-hydroxy-2,5-dihydro-2,2,5,5-tetramethyl-1H-pyrrol-3-yl)methoxy)-4-methyl-1,2,5-thiadiazole]	–	60.3	–	261.00 ×10^−3	1168.33 ×10^−3	IC50 ([2]; Homo sapiens, THP-1, read-out: TNFalpha IC50): ≥ 100 µM
CC1(C)CC(OC(=O)C2CC2)CC(C)(C)N1O.Cl [OT-551 HCl]	–	–	–	–	–	CAM data % Inhibition [1]: 75.2 ± 9.7% and 79.6 ± 7.9% and 74 ± 4%; % Inhibition ± SEM [6]: 74 ± 4%; Branch pts ± SEM [6]: 87 ± 3; levels in the retina ([7]; after topical administration): good levels; permeability through the cornea ([7]; in vivo): good permeability; Mean Percent Inhibition of TNF-alpha using 5 ng/mL LPS ([2]; compound 10 uM, 5 ng/mL LPS): 68 ± 6%
CC1(C)CC(O)CC(C)(C)N1O [TEMPOL-H, 2,2,6,6-tetramethylpiperidine-1,4-diol, reference compound]	–	–	–	–	–	effect of H2O2 in the CAM model ([1]; H2O2 induced angiogenesis, FIG. 1): dose dependent effect; inhibition at 10 µM ([2]; Homo sapiens, THP-1, compound 10 uM, 5 ng/mL LPS, read-out: Mean Percent Inhibition of TNF-alpha using 5 ng/mL LPS): 74 ± 8%
